Measured values taken from publication PMC8998492 (2022).
Blank lines part the entries; values can stand above or below the molecule they belong to.

Experiments:
[1] = system: 5'-biotin c-myc (i-motif) (DNA, i motif) CCCCACCTTCCCCACCCTCCCCACCCTCCCC; assay: SPR; conditions: 100 mM KCl; 20 mM MES pH 5.5, 0.05% Tween-20, 25 °C; DNA immobilised
[2] = system: 5'-biotin c-myc G-quadruplex (DNA, G4) TTGAGGGTGGGTAGGGTGGGTAAA; assay: SPR; conditions: 100 mM KCl; 20 mM Tris-HCl pH 7.4, 25 °C; DNA immobilised
[3] = system: c-myc promoter i-motif (DNA, i motif) CCCCACCTTCCCCACCCTCCCCACCCTCCCC; assay: fluorescent displacement (FID), microplate reader; conditions: 100 mM KCl; 1 × BPES; tracer G59 displaced
[4] = system: c-myc promoter i-motif (DNA, i motif) CCCCACCTTCCCCACCCTCCCCACCCTCCCC; assay: fluorescent displacement (FID); conditions: 100 mM KCl; 1 × BPES pH 5.5; tracer 1 μM G59 displaced, 2 μM DNA; 5 eq (5 μM) 3be
[5] = system: c-myc promoter i-motif (DNA, i motif) CCCCACCTTCCCCACCCTCCCCACCCTCCCC; assay: ITC; conditions: 100 μM G59 injected into 4 μM DNA; KD = 1/Ka (Ka 5.94×10^5 M-1)
[6] = system: c-myc promoter i-motif (DNA, i motif) CCCCACCTTCCCCACCCTCCCCACCCTCCCC; assay: CD melting; conditions: 100 mM KCl; 1 × BPES pH 5.5; 2 μM DNA, 10 μM G59; Tm 53.1 to 59.9 °C
[7] = system: DS26 (DNA, duplex) CAATCGGATCGAATTCGATCCGATTG; assay: fluorescence titration; conditions: 100 mM KCl; 20 mM Tris-HCl pH 7.4; also unstained in PAGE
[8] = system: SS26 (DNA, single strand) ATACGATGCTTCACGGTGCTATCTG; assay: fluorescence titration; conditions: 100 mM KCl; 20 mM Tris-HCl pH 7.4; also unstained in PAGE
[9] = system: c-myc promoter i-motif (DNA, i motif) CCCCACCTTCCCCACCCTCCCCACCCTCCCC; assay: fluorescence enhancement; conditions: 100 mM KCl; 1 × BPES pH 5.5
[10] = system: c-myc-C7A (DNA, i motif) CCCCACATTCCCCACCCTCCCCACCCTCCCC; assay: fluorescence enhancement; conditions: 100 mM KCl; 1 × BPES pH 5.5
[11] = system: c-myc-C7T (DNA, i motif) CCCCACTTTCCCCACCCTCCCCACCCTCCCC; assay: fluorescence enhancement; conditions: 100 mM KCl; 1 × BPES pH 5.5
[12] = system: c-myc-C7G (DNA, i motif) CCCCACGTTCCCCACCCTCCCCACCCTCCCC; assay: fluorescence enhancement; conditions: 100 mM KCl; 1 × BPES pH 5.5
[13] = system: c-myc-C16A (DNA, i motif) CCCCACCTTCCCCACACTCCCCACCCTCCCC; assay: fluorescence enhancement; conditions: 100 mM KCl; 1 × BPES pH 5.5
[14] = system: c-myc-C16T (DNA, i motif) CCCCACCTTCCCCACTCTCCCCACCCTCCCC; assay: fluorescence enhancement; conditions: 100 mM KCl; 1 × BPES pH 5.5
[15] = system: c-myc-C16G (DNA, i motif) CCCCACCTTCCCCACGCTCCCCACCCTCCCC; assay: fluorescence enhancement; conditions: 100 mM KCl; 1 × BPES pH 5.5
[16] = system: c-myc-C25A (DNA, i motif) CCCCACCTTCCCCACCCTCCCCACACTCCCC; assay: fluorescence enhancement; conditions: 100 mM KCl; 1 × BPES pH 5.5
[17] = system: c-myc-C25T (DNA, i motif) CCCCACCTTCCCCACCCTCCCCACTCTCCCC; assay: fluorescence enhancement; conditions: 100 mM KCl; 1 × BPES pH 5.5
[18] = system: c-myc-C25G (DNA, i motif) CCCCACCTTCCCCACCCTCCCCACGCTCCCC; assay: fluorescence enhancement; conditions: 100 mM KCl; 1 × BPES pH 5.5

KD [1]: 9.52 µM | KD [2]: 46.2 µM | binding [3]: yes
Structure (SMILES): C[C@H]1O[C@@H](O[C@H]2CC[C@@]3(C)[C@@H](CC[C@]4(C)[C@@H]3C=CC3=C5CC(C)(C)CC[C@]5(CO)[C@H](O)C[C@]34C)[C@]2(C)CO)[C@H](O)[C@@H](O[C@@H]2O[C@H](CO)[C@@H](O)[C@H](O)[C@H]2O)[C@H]1O

relative replacement ratio [4]: 42.09%
Structure (SMILES): c1ccc2c(c1)c1cc(-c3cn(CCN4CCCC4)nn3)ccc1n2CCN1CCCC1

KD [5]: 1.68 µM | ΔTm [6]: 6.8 °C | binding [7]: weak | binding [8]: weak | FI/F0 [9]: 17.98 | FI/F0 [10]: 13.35 | FI/F0 [11]: 18.35 | FI/F0 [12]: 5.44 | FI/F0 [13]: 15.2 | FI/F0 [14]: 18.23 | FI/F0 [15]: 6.03 | FI/F0 [16]: 17.15 | FI/F0 [17]: 17.92 | FI/F0 [18]: 6.59
Structure (SMILES): O=C1c2cccc3c(-c4ccc5c(c4)c4cc(-c6ccc7c8c(cccc68)C(=O)N(CCN6CCCC6)C7=O)ccc4n5CCN4CCCC4)ccc(c23)C(=O)N1CCN1CCCC1
